Measurements published in patent US20250171495A1, “MUTLI-TARGETED SERINE PROTEASE INHIBITORS FOR TREATMENT OF CANCER AND VIRAL INFECTION” (Washington University, priority 2023, published 2025).
Several values for one entry are separate records, joined by “and”; a condition that tells them apart may be missing. Equal entries are not always repeated.

What was measured:
Format in all cases: biochemical
[1] = molecular target: TMPRSS2 (Homo sapiens, UniProt O15393); assay: PS-SCL / HyCoSuL substrate specificity screening, TMPRSS2; settings: for P2 Position Substrate Activity for TMPRSS2 (percent substrate cleavage/proteolysis): residue fixed at P2 position of substrate library; for P3 Position Various Amino Acids Substrate Activity, TMPRSS2 (percent substrate cleavage/proteolysis) / P3 Position Substrate Activity for TMPRSS2 (percent substrate cleavage/proteolysis): residue fixed at P3 position of substrate library
[2] = molecular target: T1, HGFA (Homo sapiens, UniProt Q04756); assay: HyCoSuL P4-P2 substrate specificity screening, HGFA; settings: for P2 Position Substrate Activity for HGFA (percent substrate cleavage/proteolysis): residue fixed at P2 position; for P3 Position Various Amino Acids Substrate Activity, HGFA (percent substrate cleavage/proteolysis): residue fixed at P3 position of substrate library; for P4 Position Various Amino Acids Substrate Activity, HGFA (percent substrate proteolysis/cleavage): residue fixed at P4 position of substrate library; for P3 Position Substrate Activity for HGFA (percent substrate cleavage/proteolysis): residue fixed at P3 position
T1 sequence (Q04756 373-655): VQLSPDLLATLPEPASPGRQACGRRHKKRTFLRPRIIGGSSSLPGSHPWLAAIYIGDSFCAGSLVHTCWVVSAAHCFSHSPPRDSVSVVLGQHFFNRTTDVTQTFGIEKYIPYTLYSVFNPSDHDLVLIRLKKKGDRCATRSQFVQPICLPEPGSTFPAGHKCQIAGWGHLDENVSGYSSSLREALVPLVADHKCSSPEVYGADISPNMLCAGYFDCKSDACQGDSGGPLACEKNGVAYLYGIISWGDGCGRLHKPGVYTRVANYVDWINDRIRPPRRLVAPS

[3] = molecular target: T2, hepsin (Homo sapiens, UniProt P05981); assay: HyCoSuL P4-P2 substrate specificity screening, hepsin; settings: for P2 Position Substrate Activity for hepsin (percent substrate cleavage/proteolysis): residue fixed at P2 position; for P3 Position Various Amino Acids Substrate Activity, hepsin (percent substrate cleavage/proteolysis): residue fixed at P3 position of substrate library; for P4 Position Various Amino Acids Substrate Activity, hepsin (percent substrate proteolysis/cleavage): residue fixed at P4 position of substrate library; for P3 Position Substrate Activity for hepsin (percent substrate cleavage/proteolysis): residue fixed at P3 position
T2 construct: purchased R&D Systems 4776-SE-010

[4] = molecular target: T3, matriptase (Homo sapiens, UniProt Q9Y5Y6); assay: HyCoSuL P4-P2 substrate specificity screening, matriptase; settings: for P2 Position Substrate Activity for matriptase (percent substrate cleavage/proteolysis): residue fixed at P2 position; for P3 Position Various Amino Acids Substrate Activity, matriptase (percent substrate cleavage/proteolysis): residue fixed at P3 position of substrate library; for P4 Position Various Amino Acids Substrate Activity, matriptase (percent substrate proteolysis/cleavage): residue fixed at P4 position of substrate library; for P3 Position Substrate Activity for matriptase (percent substrate cleavage/proteolysis): residue fixed at P3 position
T3 sequence (Q9Y5Y6 1-855): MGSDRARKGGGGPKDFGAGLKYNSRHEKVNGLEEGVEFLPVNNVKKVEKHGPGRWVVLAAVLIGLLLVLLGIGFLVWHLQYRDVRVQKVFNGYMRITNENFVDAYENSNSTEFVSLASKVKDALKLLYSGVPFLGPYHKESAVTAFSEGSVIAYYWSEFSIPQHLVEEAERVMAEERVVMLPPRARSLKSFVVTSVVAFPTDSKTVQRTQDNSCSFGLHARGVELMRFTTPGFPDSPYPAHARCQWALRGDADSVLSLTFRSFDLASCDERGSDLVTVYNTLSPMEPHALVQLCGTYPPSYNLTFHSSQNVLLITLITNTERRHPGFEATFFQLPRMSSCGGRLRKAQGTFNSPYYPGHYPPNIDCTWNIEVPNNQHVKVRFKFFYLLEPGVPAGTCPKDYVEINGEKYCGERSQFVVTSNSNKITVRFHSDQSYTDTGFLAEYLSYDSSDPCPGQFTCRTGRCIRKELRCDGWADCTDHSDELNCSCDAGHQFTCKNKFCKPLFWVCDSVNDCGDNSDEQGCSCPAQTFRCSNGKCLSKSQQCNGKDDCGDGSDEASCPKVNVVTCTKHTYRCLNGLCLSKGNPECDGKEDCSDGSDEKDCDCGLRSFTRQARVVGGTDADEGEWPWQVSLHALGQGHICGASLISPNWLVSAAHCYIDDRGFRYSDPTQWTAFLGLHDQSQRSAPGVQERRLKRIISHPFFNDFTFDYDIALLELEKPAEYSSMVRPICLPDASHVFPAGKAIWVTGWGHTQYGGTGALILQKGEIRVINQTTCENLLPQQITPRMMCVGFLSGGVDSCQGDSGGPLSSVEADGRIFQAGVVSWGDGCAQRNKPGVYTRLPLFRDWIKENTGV

[5] = best recognized amino acid set to 100%
[6] = residue fixed at P4 position of substrate library
[7] = P1-Arg HyCoSuL, 100 μM, best recognized amino acid set to 100%
[8] = residue fixed at P4 position, P1-Arg HyCoSuL, 100 μM, best recognized amino acid set to 100%

Chain of TMPRSS2 (O15393 whole entry): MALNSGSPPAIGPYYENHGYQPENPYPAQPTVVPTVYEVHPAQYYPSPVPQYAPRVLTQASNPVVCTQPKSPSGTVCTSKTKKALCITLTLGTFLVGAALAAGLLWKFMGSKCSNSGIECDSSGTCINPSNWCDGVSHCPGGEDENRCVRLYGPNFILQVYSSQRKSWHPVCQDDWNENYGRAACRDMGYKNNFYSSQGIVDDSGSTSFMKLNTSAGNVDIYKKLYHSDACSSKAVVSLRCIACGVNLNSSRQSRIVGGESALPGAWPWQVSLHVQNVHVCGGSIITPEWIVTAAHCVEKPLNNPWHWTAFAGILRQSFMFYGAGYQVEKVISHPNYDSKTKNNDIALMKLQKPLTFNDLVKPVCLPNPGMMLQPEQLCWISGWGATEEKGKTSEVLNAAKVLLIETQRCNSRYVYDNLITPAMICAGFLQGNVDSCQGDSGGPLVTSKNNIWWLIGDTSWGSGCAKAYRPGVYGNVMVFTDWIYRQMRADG
T2 sequence (P05981 163-417 limits assumed): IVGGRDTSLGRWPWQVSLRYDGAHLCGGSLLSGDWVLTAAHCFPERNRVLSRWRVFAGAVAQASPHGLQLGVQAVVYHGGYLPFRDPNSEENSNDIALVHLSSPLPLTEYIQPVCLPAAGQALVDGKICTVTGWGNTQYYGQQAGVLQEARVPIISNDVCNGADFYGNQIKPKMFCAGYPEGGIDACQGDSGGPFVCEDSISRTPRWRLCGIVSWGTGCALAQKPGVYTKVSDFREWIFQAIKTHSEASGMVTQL
T2 sequence (P05981 1-162 partner limits assumed): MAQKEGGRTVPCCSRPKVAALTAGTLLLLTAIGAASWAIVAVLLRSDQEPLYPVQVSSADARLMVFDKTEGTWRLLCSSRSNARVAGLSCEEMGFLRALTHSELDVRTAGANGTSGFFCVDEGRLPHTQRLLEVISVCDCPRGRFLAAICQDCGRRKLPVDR

P2 Position Substrate Activity for TMPRSS2 (percent substrate cleavage/proteolysis) [1, 5]	P3 Position Various Amino Acids Substrate Activity, TMPRSS2 (percent substrate cleavage/proteolysis) [1]	P4 Position Various Amino Acids Substrate Activity, TMPRSS2 (percent substrate proteolysis/cleavage) [1, 6]	P2 Position Substrate Activity for HGFA (percent substrate cleavage/proteolysis) [2, 7]	P3 Position Various Amino Acids Substrate Activity, HGFA (percent substrate cleavage/proteolysis) [2]	P4 Position Various Amino Acids Substrate Activity, HGFA (percent substrate proteolysis/cleavage) [2]	P2 Position Substrate Activity for hepsin (percent substrate cleavage/proteolysis) [3, 7]	P3 Position Various Amino Acids Substrate Activity, hepsin (percent substrate cleavage/proteolysis) [3]	P4 Position Various Amino Acids Substrate Activity, hepsin (percent substrate proteolysis/cleavage) [3]	P2 Position Substrate Activity for matriptase (percent substrate cleavage/proteolysis) [4, 7]	P3 Position Various Amino Acids Substrate Activity, matriptase (percent substrate cleavage/proteolysis) [4]	P4 Position Various Amino Acids Substrate Activity, matriptase (percent substrate proteolysis/cleavage) [4]	P3 Position Substrate Activity for TMPRSS2 (percent substrate cleavage/proteolysis) [1, 5]	P3 Position Substrate Activity for HGFA (percent substrate cleavage/proteolysis) [2, 7]	P3 Position Substrate Activity for hepsin (percent substrate cleavage/proteolysis) [3, 7]	P3 Position Substrate Activity for matriptase (percent substrate cleavage/proteolysis) [4, 7]	P4 Position Substrate Activity for TMPRSS2 (percent substrate cleavage/proteolysis) ([1]; residue fixed at P4 position of substrate library, best recognized amino acid set to 100%)	P4 Position Substrate Activity for HGFA (percent substrate cleavage/proteolysis) [2, 8]	P4 Position Substrate Activity for hepsin (percent substrate cleavage/proteolysis) [3, 8]	P4 Position Substrate Activity for matriptase (percent substrate cleavage/proteolysis) [4, 8]	Substance
0.00%	0.00%	22.57%	0.00%	6.45%	8.61%	0.00%	36.69%	25.74%	0%	2%	9%									D-Thr
0.00%	4.49%	33.78%	0.00%	17.32%	10.09%	0.00%	29.94%	12.66%	0%	6%	7%									D-Tyr
25.14%	31.84%	26.30%	2.37%	8.97%	6.68%	17.85%	28.07%	41.30%	28%	34%	31%									L-Ala
5.65%			2.08%			57.23%			0%	70%	100%	27.44%	43.98%	70.75%	62.39% and 70.35%	27.99%	23.62%	80.32%	100.00%	L-Arg
9.49%	19.47%	21.89%	4.79%	6.12%	8.20%	63.72%	24.47%	25.25%	12%	14%	10%									L-Asn

Second part, the substance before the results:

Substance	P2 Position Substrate Activity for TMPRSS2 (percent substrate cleavage/proteolysis) [1, 5]	P3 Position Various Amino Acids Substrate Activity, TMPRSS2 (percent substrate cleavage/proteolysis) [1]	P4 Position Various Amino Acids Substrate Activity, TMPRSS2 (percent substrate proteolysis/cleavage) [1, 6]	P2 Position Substrate Activity for HGFA (percent substrate cleavage/proteolysis) [2, 7]	P3 Position Various Amino Acids Substrate Activity, HGFA (percent substrate cleavage/proteolysis) [2]	P4 Position Various Amino Acids Substrate Activity, HGFA (percent substrate proteolysis/cleavage) [2]	P2 Position Substrate Activity for hepsin (percent substrate cleavage/proteolysis) [3, 7]	P3 Position Various Amino Acids Substrate Activity, hepsin (percent substrate cleavage/proteolysis) [3]	P4 Position Various Amino Acids Substrate Activity, hepsin (percent substrate proteolysis/cleavage) [3]	P2 Position Substrate Activity for matriptase (percent substrate cleavage/proteolysis) [4, 7]	P3 Position Various Amino Acids Substrate Activity, matriptase (percent substrate cleavage/proteolysis) [4]	P4 Position Various Amino Acids Substrate Activity, matriptase (percent substrate proteolysis/cleavage) [4]	P3 Position Substrate Activity for TMPRSS2 (percent substrate cleavage/proteolysis) [1, 5]	P3 Position Substrate Activity for HGFA (percent substrate cleavage/proteolysis) [2, 7]	P3 Position Substrate Activity for hepsin (percent substrate cleavage/proteolysis) [3, 7]	P3 Position Substrate Activity for matriptase (percent substrate cleavage/proteolysis) [4, 7]	P4 Position Substrate Activity for TMPRSS2 (percent substrate cleavage/proteolysis) ([1]; residue fixed at P4 position of substrate library, best recognized amino acid set to 100%)	P4 Position Substrate Activity for HGFA (percent substrate cleavage/proteolysis) [2, 8]	P4 Position Substrate Activity for hepsin (percent substrate cleavage/proteolysis) [3, 8]	P4 Position Substrate Activity for matriptase (percent substrate cleavage/proteolysis) [4, 8]
D-Ser	0.00%	0.00%	31.72%	0.00%	10.86%	7.94%	11.55%	54.84%	21.84%	0%	2%	10%								
D-Trp	0.00%		22.02%	0.00%		7.65%	0.00%		1.48%	0%	5%	5%	31.94%	87.59%	24.90%	76.43%				
D-Val	0.00%	0.00%	17.70%	0.00%	5.76%	8.25%	0.00%	27.04%	22.58%	0%	1%	7%								
L-Asp	9.72%	25.70%	7.77%	1.21%	2.81%	1.90%	0.33%	3.89%	0.22%	1%	2%	1%								
